Here are results for five compounds from patent publication US6361773B1, “Antibodies produced against cytokine suppressive anti-inflammatory drug binding proteins” (SmithKline Beecham Corporation, priority 1993, dated 2002).

For assay [1], the system named is IL-1 production in human monocytes. Kind of assay: CSAIDs bioassay (IL-1 dependent EL-4/IL2 induction assay, LPS-stimulated human monocytes). The conditions noted are these: Monocyte. Format: cell-based. The protocol:
The biological assay employed to evaluate CSAIDs activity was the IL-1 dependent EL-4/IL2 induction assay (Simon, P. L. et al., J. Immuno. Meth. 84: 85-94 (1985)). Briefly, Human monocytes were plated in 24-well plates in LPS-free RPMI 1640 media containing 1% human AB serum at a concentration of 10^6 per millilitre per well and allowed to adhere for 1 h at 37° C.; non-adherent cells were removed by gentle washing. Test compounds or media were added to the cells 0 or 1 h before the addition of bacterial lipopolysaccharide (E. coli 001:B4; Difco, Detroit) at 10 ng/ml. The cultures were then incubated at various intervals as indicated at 37° C. in a humidified 5% CO2 atmosphere. At the end of the incubation period, culture supernatants were collected. The residual adherent monocytes were lysed in a buffer containing 0.15M octyl-glucopyranoside, 25 mM Hepes, and 0.5 mM phenylmethylsulfonylfluoride in saline. Both supernatants and cell lysates were clarified by centrifugation and assayed for IL-1 activity.
IL-1 activity was measured by its ability to stimulate the secretion of IL-2 by EL-4 (ATCC TIB181) cells in the presence of A23187 ionophore. Serial dilutions of the samples were incubated with 10^5 EL-4 cells in the presence of 2×10^−7 M calcium ionophore A23187. After overnight incubation, 0.1 ml of a cell-free supernatant from each culture was taken and incubated with 10^4 IL-2-dependent […] (ATCC-T11B214) cells. Following an additional 20 hours of incubation, the cultures were pulsed with 1 μCi of tritiated thymidine for 4 h. The cells were then harvested onto glass-fibre filters and the radioactivity deterrnined by liquid scintillation counting.

Assay [2] concerns the target T1, CSAID binding protein (CSBP) in THP.1 cytosol (Homo sapiens, UniProt Q16539).
T1 construct: endogenous in cells; host or cells: THP.1 (ATCC TIB 202), cytosolic fraction (100,000 x g supernatant)
Nature of the assay: CSAID binding assay with 3H-Compound I and THP.1 cytosol.

Setting [3] is: Table II, read-out: IC50 in competitive CSAID binding assay.

The structures appear in SMILES notation. Read-outs that look alike come from different tables or passages of the source.

T1 sequence (Q16539 whole entry): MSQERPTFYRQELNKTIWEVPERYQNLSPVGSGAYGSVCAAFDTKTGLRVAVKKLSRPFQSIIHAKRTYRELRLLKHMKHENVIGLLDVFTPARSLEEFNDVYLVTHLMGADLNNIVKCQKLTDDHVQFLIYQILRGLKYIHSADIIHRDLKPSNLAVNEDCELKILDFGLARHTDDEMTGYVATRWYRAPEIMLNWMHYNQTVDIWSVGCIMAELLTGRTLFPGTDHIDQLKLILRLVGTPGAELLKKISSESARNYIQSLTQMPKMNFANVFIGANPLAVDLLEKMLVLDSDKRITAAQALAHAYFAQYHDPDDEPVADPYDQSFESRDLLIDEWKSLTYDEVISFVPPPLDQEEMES

Regarding `[N-]=[N+]=Nc1ccc(-c2nc(-c3cccc([125I])c3)c(-c3ccncc3)[nH]2)cc1` [Compound IV, 4-[2-(4-azidophenyl)-5-(3-^125Iodo-phenyl)-1H-imidazol-4-yl]pyridine], the half-maximal inhibitory concentration (IC50) – broadly, the point on the concentration scale where inhibition reaches its midpoint – was 3000 nM in assay [1] (read-out: IC50 in a CSAIDs bioassay) and 0.5 to 0.8 µM in assay [2] (read-out: IC50 in a competitive binding assay).

As to `CCc1nc(-c2ccc(OC)cc2)[nH]c1-c1ccncc1` [Compound VIII], the concentration for half-maximal inhibition (IC50) in assay [1] (read-out: IC50 in the bioassay) was > 5000 nM. Same read-out and setting: for `N#Cc1ccc(-c2nc(-c3ccc(F)cc3)c(-c3ccnc4ccccc34)n2O)cc1` [Compound VII] the value was 20 nM. Turning to `CC(Cc1ccc(O)c(O)c1)C(C)Cc1ccc(O)c(O)c1` (stereo not drawn) [NDGA], the IC50 in assay [2] (setting [3]) is 154 µM.

`NC(=O)N1C(=O)/C(=C(\O)c2cccs2)c2cc(Cl)ccc21` [Tenidap]: the IC50 in assay [2] (setting [3]) turned out to be 139 µM.
